Experimental data from patent US20140242012A1, “METHODS FOR TREATING UV-DAMAGED SKIN AND SCC TUMORS AND FOR REMOVING TATTOOS WITH TOPICAL INGENOL MEBUTATE” (LEO Laboratories Limited, priority 2011, published 2014).

What was measured:
T7 tumours = test: Challenge of ingenol mebutate cured mice with T7 cells; format: in vivo, SKH1/hr mice; conditions: challenge 110 or 159 days after cure with 0.25% topical
Description: To determine if cure of primary T7 tumours in inbred SKH1/hr mice would protect mice from subsequent challenge with the same tumour, T7 cells were injected s.c. in female SKH1/hr mice that had primary T7 tumours previously cured by topical treatment with 0.25% ingenol mebutate. There were 2 groups of mice, mice that had primary tumours cured by ingenol mebutate 110 (group 1) and 159 (group 2) days prior to challenge. Included in the study was a control group that had not previously received T7 or ingenol mebutate treatment. Tumour growth is monitored over time. Mice are culled when tumours reached 100 mm^2.
Mice are inoculated s.c. with 2×10^4 T7 cells 110 (Day 110) or 159 (Day 159) days post last treatment of primary tumour with ingenol mebutate. Tumour growth is monitored over time. Mice are sacrificed when tumour reached 100 mm^2. Survival curves are generated by assigning a death event when tumours reached 100 mm^2. Control mice had neither prior T7 nor ingenol mebutate treatment.

B16 = conditions: Ogbourne et al. 2004; cited from earlier work
UVB-induced skin lesions = test: Field treatment of ~10 cm2 UVB-damaged skin: development of UVB-induced lesions; format: in vivo, SKH1/hr mice
Source text: Outbred SKH1/hr mice were irradiated 3 times per week for 10-11 weeks under 6×TL-12/40 W fluorescent tubes (Phillips, Amsterdam, The Netherlands) mounted in parallel. The lamps emit 54% UVB (280-315 nm) and 46% UVA (315-400 nm) (Rebel et al., 2001). During the irradiation mice were segregated into individual boxes (11.5×20 cm) with a piece of 0.125 mm cellulose acetate placed over the box to prevent any UVC reaching the mice. The mice were 26 cm below the UV lamps. Under these conditions the mice received 1.25 times the minimal erythemal dose (MED) of UVB at each exposure, with the total UVB dose being 37.5 MED. One MED was defined as the minimal UVB dose, which caused erythema-oedema evident by visual examination. […] Such cessation was usually only necessary after the initial 2-3 doses of UVB, as mice become resistant to UVB-induced erythema with repeated exposures.
One to three days after discontinuation of UVB irradiation, a ˜10 cm2 rectangular area located centrally on the dorsa and previously demarcated by a tattoo were treated topically, daily for 2 days with 100 μl of 0.05% ingenol mebutate gel or 100 μl of placebo gel. An untreated group served as an additional control. The mice were monitored weekly for the development of lesions both within and outside the treatment areas. […] The number and size of lesions was monitored over time. All visible lesions were counted. […]

Tattoo studies = format: in vivo, SKH1/hr mice; conditions: 50 μl topically daily for 2 days (Days 12 & 13), followed to Day 232, n=5
Description: Fifteen SKH1/hr mice are tattooed on their dorsa with an about 1 cm×about 1 cm cross using human grade blue tattoo ink (Tattoo supplies Australia, Catalogue number FFMB) on Day 0. Once the tattooed area heals (after 12 days), the tattoo (about 100 mm^2) is topically treated daily for 2 days with 50 μl of PEP005 gel or placebo gel (Day 12 & Day 13). Two PEP005 doses are tested: 0.1% and 0.25% (w/v). The mice are examined over time to assess any changes to the tattooed area and photographs are taken.
The aim study is to determine whether PEP005 gel can remove tattoo markings when applied topically. Fifteen mice are tattooed with a cross on their dorsa. Twelve days after the tattoos are drawn, they are treated topically daily for 2 days with 0.1% PEP005, 0.25% PEP005 or placebo gel. The photographs in FIG. 1 show the tattoo just prior to the first treatment (Day 12), 24 h after the first treatment (Day 13) and at different time points after the second treatment (from Day 14 onwards). […] One week after the second dose, an eschar encompassing the whole treatment area forms. This contracts over time and fully resolves after about 3 weeks (Day 32). […] Six to seven months after the PEP005 treatment is applied, the treated area heals, leaving skin with a slight pink tinge. […] There is no change in the placebo treated tattoos over this time frame. […]

C/C=C(/C)C(=O)O[C@H]1C(C)=C[C@]23C(=O)[C@@H](C=C(CO)[C@@H](O)[C@]12O)[C@H]1[C@@H](C[C@H]3C)C1(C)C [ingenol mebutate]
protection against subsequent T7 challenge (T7 tumours): no protective effect | LD90 (B16): 190 µM | growth of individual lesions vs control and placebo (UVB-induced skin lesions; lesions within the treatment areas): no significant difference | number of lesions outside the treatment area (UVB-induced skin lesions; ~10 cm2 area): not significantly affected | removal of tattoo markings (Tattoo studies): eradication of the tattoo markings
